The test system of assay [1] is sub-chronic PCP treated rats. Put plainly: novel object recognition (NOR) test in sub-chronic PCP treated rats. Type of assay: in vivo, rat. How it is done:
The NOR test was performed as described in the above cited reference (Grayson 2007).
Acquisition trial. […] Data are expressed as mean±s.e.m. (n=9-10 per group) and were analysed by ANOVA and post-hoc student's t-test.
Retention trial. […] Data are expressed as mean±s.e.m. (n=9-10 per group) and were analysed by ANOVA and post-hoc student's t-test.
Data are expressed as the mean±s.e.m. (n=9-10 per group) and were analysed using ANOVA followed by post-hoc Dunnett's t-test.
Locomotor activity. […] Data are expressed as mean±s.e.m (n=9-10 per group) and were analysed by ANOVA and post-hoc Dunnett's t-test.

For a further assay, the target named is D2 receptor (Homo sapiens, UniProt P14416). Put plainly: PET study, D2 receptor occupancy (11C-raclopride tracer). In kind it is in vivo. Conditions: healthy subjects, read-out: D2 receptor occupancy in the putamen.
For a further assay, the system named is α1 adrenoceptors. Conditions: WO 2005/016900; cited from earlier work.
The next assay concerns the target dopamine D1 receptors (Homo sapiens, UniProt P21728). The conditions noted are these: WO 2005/016900; cited from earlier work.
A further assay has as its target dopamine D2 receptors (Homo sapiens, UniProt P14416). Conditions: WO 2005/016900; cited from earlier work.
The subject of assay [2] is subchronic PCP treated rats. Put plainly: attentional set-shifting in subchronic PCP rat disease model (executive functioning). In kind it is in vivo. Conditions: for EDS discrimination performance (trials to criterion) vs PCP+vehicle group: 30 min before test.
Source text: The attentional set-shifting paradigm is an animal model which allows assessment of executive functioning via intra-dimensional (ID) versus extra-dimensional (ED) shift discrimination learning. A schizophrenia-disease-like animal model with subchronic phencyclidine (PCP) administration plus washout period is applied.
Accordingly, the cognitive enhancing properties of a compound can be investigated by testing whether the compound is attenuating the “attentional performance impairment” induced by subchronic PCP administration in rats.
Methodology. In vivo assessment of “attentional set-shifting performance” was conducted as described by Rodefer et al. (Eur. J. Neurosci. 21:1070-1076 (2005)), and was based on a modified version of the task designed by Birrell & Brown (J. Neurosci. 20:4320-4324 (2000)). Briefly, Male Long-Evans rats (Harlan, Indianapolis, Ind.) weighing approximately 250 g at the beginning of the study in four groups (n=12 each group) were used. After habituating to the colony room environment, rats received a series of subchronic injections of PCP (5 mg/kg, i.p.) or saline twice daily for 7 days, followed by a washout period of 10 days before beginning the set-shifting procedure in which animals were required to dig in a pot to retrieve a food reward (half of a Honey Nut Cheerio® (General Mills, Minneapolis, Minn., USA)) using either digging medium or scented odor as the dimensional cue. The test chamber was a Plexiglas® box (50×37.5×25 cm) with an opaque barrier separating one-third of the box from the rest (along the long axis of the box). […]
Habituation was performed for several days before testing; a pot filled with wood chip bedding used in the rats' home cages and baited with several Cheerios® was placed in each rat's cage, to accustom them to retrieving food rewards from the pots. […] The rats therefore could investigate the digging medium with paws or snout before executing a “dig” response, and these choices were not scored. […]
The subject of the next assay is rats. Put plainly: condition avoidance response (CAR) model. Conditions: at very low levels of D2 receptor occupancy. In kind it is in vivo, rat. The source says: The compound of formula I is a putative antipsychotic compound with affinity for both dopamine D1 and D2 receptors.
In the next assay the test system is 5-HT2 receptor. Conditions: WO 2005/016900; cited from earlier work.
The target in a further assay is D1 receptor (Homo sapiens, UniProt P21728). Kind of assay: PET study, D1 receptor occupancy (11C-SCH23390 tracer). In kind it is in vivo. The conditions noted are these: healthy subjects, read-out: D1 receptor occupancy in putamen.
Assay [3] deals with subchronic PCP treated rats. Conditions: given acutely; Rodefer et al. (2008); cited from earlier work.
[4] abbreviates: 2 mg/day given daily for 18 days.
The mark [5] stands for this setting: 10 mg/day given daily for 18 days.

Chain of D1 receptor (P21728 whole entry): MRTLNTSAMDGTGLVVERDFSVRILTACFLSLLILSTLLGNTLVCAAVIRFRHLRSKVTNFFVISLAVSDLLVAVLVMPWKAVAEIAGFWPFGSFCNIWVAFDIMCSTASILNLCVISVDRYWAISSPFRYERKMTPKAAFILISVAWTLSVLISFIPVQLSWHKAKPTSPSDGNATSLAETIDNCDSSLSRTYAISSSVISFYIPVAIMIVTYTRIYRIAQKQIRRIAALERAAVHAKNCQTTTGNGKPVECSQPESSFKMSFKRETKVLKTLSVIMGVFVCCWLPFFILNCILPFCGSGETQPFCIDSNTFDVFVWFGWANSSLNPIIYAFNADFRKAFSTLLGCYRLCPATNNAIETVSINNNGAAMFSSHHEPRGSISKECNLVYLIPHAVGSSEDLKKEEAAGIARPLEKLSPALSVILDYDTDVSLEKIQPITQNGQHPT
Chain of D2 receptor (P14416 whole entry): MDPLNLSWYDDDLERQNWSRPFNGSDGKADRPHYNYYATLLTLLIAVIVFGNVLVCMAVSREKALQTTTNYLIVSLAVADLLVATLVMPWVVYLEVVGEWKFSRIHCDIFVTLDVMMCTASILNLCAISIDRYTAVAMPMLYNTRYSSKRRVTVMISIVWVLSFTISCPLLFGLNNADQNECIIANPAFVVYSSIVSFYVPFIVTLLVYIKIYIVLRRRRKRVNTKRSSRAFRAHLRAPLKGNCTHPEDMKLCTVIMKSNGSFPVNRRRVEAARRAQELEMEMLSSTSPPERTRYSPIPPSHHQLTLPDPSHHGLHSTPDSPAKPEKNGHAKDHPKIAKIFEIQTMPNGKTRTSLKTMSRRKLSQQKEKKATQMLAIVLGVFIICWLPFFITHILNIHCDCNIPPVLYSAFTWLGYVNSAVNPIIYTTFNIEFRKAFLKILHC
Chain of dopamine D1 receptors (P21728 whole entry): as the sequence (P21728 whole entry) above
Chain of dopamine D2 receptors (P14416 whole entry): as the sequence (P14416 whole entry) above

Take `CN1CCN([C@@H]2C[C@@H](c3ccccc3)c3ccc(Cl)cc32)CC1(C)C` [Compound I, trans-4-((1R,3S)-6-chloro-3-phenylindan-1-yl)-1,2,2-trimethylpiperazine]: the “locomotor activity (total number of line crossings)” value in assay [1] (2.5 mg/kg s.c., p<0.05 compared to vehicle) was “significantly reduced”. For the same compound, the “time spent exploring the identical objects, acquisition phase” value in assay [1] (acute 0.5-2.5 mg/kg s.c.) was “no significant difference”. Also, the “sub-chronic PCP-induced impairment, novel vs familiar object exploration, retention phase” value in assay [1] (acute, all three doses 0.5, 1.25, 2.5 mg/kg s.c.) is “significantly attenuated”. The receptor occupancy at 2 mg at D2 receptor (setting [4]) was 11%; on D1 receptor (setting [4]), 32%. The receptor occupancy at 10 mg at D2 receptor (setting [5]) is 43%; on D1 receptor (setting [5]) it was 69%. In the assay with α1 adrenoceptors, the “affinity for α1 adrenoceptors” value was “high affinity”. Moreover, the “affinity for dopamine D1 receptors (antagonist)” value at dopamine D1 receptors is listed as “high affinity”. The “affinity for dopamine D2 receptors (antagonist)” value at dopamine D2 receptors is on record as “high affinity”. Also, the “EDS discrimination performance (trials to criterion) vs PCP+vehicle group” value was “significantly attenuated” in assay [2] (1.25 mg/kg s.c., t=3.09, p<0.05) and “significantly attenuated” in [2] (2.5 mg/kg s.c., t=3.80, p<0.01). The “behavior on all other discrimination problems” value in [2] (1.25 or 2.5 mg/kg s.c., all ps>0.05) is “No evidence was found that either dose of Compound I impacted behavior”. Besides, in the assay on rats, the “antipsychotic activity in CAR model” value is reported as “possesses antipsychotic activity”. In addition, the “affinity for the 5-HT2 receptor (antagonist)” value in the assay with 5-HT2 receptor is “high affinity”.

Turning to `CN1CCN(C2=Nc3cc(Cl)ccc3Nc3ccccc32)CC1` [clozapine, reference compound], the “PCP-induced reduction of discrimination index” value in assay [1] (2.5 mg/kg i.p.) is listed as “no significant effect”.

As to `O=C(CCCN1CCC(O)(c2ccc(Cl)cc2)CC1)c1ccc(F)cc1` [haloperidol], the “reversing PCP-disrupted attentional performance” value in assay [3] is reported as “ineffective”.

Take `Cc1nc2n(c(=O)c1CCN1CCC(c3noc4cc(F)ccc34)CC1)CCCC2` [risperidone]: the “reversing PCP-disrupted attentional performance” value in assay [3] is reported as “ineffective”.

These data come from patent US20110207744A1, “Method for treating cognitive deficits” (H. Lundbeck A/S, priority 2008, published 2011).
